Article PMC10763615, “Identification and engineering of potent cyclic peptides with selective or promiscuous binding through biochemical profiling and bioinformatic data analysis” (RSC Chemical Biology, 2023)
pKd: −log10 of the molar value. Read-outs that look alike come from different tables or passages of the source.

What was measured:
FGF-R1C ECD [1] = biological target: T1, FGF-R1C ECD (Homo sapiens, UniProt P11362); experiment: biochemical
T1 sequence (P11362 22-376 limits assumed): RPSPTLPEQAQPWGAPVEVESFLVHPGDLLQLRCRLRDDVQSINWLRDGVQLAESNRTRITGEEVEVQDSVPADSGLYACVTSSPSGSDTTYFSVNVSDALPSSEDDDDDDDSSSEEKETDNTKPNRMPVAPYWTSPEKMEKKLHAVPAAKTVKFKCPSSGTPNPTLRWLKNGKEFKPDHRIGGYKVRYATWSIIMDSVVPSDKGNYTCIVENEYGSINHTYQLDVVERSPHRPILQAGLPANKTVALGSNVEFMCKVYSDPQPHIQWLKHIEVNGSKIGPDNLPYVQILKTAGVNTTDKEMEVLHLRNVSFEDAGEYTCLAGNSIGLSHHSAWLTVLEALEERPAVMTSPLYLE
Procedure: (§1) KD affinity binding measurements were obtained by biolayer interferometry (BLI) instruments (Fortebio Octet HTX, or Sartorius Octet RH16 using either 8 or 16 channel mode.
(§2) For single concentration binding experiments, 50 μM peptide stocks in folding buffer were diluted 1:50 in mRNA display selection buffer (PBS pH7.4 supplemented with 0.05% Tween-20 and 0.01% BSA) in either a 96 well black plate, or a 384 well tilted bottom microplate (ForteBio). Biotinylated FGF-R protein was loaded onto Streptavidin-functionalised biosensors (ForteBio) and immersed into ~1 μM peptide to obtain association kinetics curves. Dissociation kinetics curves were obtained by subsequent immersion of ligand-associated loaded sensors into a 1:50 dilution of folding buffer in mRNA display selection buffer. Fitted KD data was adjusted for concentration as determined by UPLC-CAD.
(§3) For accurate multi-concentration KD determination, dilution series of each peptide were made, and association and dissociation kinetics curves were obtained as above for each concentration to fit a multi-point KD binding model. Data collection and analysis was performed using the Octet Instrument Control […]
(§4) concentration assay kinetics curves shown in supplementary Figure S 19-24.

FGF-R3C ECD [2] = biological target: T2, FGF-R3C ECD (Homo sapiens, UniProt P22607); experiment: biochemical
T2 sequence (P22607 23-375 limits assumed): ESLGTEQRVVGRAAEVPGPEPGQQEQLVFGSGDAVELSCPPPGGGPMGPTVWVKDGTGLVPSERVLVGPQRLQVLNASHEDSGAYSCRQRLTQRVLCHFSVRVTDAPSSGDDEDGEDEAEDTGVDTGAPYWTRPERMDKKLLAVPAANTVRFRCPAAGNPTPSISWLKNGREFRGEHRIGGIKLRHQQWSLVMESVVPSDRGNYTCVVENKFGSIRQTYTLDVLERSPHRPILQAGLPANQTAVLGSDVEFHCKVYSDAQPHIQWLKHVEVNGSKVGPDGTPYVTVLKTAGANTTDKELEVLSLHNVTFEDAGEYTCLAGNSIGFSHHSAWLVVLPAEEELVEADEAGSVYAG
Procedure: as §1, §2, §3, §4

FGF-R4 ECD [3] = biological target: T3, FGF-R4 ECD (Homo sapiens, UniProt P22455); experiment: single concentration BLI of crude peptides; assay type: binding; details: crude T18 selection 1 (1:1:1) peptides, single concentration BLI (Table S4); read-out: KD (4)
T3 construct: DNA constructs for the extracellular domain (ECD) of human FGF-; HPC4 (C); made in house; host or cells: HEK 293-6E
T3 sequence (P22455 22-369 limits assumed): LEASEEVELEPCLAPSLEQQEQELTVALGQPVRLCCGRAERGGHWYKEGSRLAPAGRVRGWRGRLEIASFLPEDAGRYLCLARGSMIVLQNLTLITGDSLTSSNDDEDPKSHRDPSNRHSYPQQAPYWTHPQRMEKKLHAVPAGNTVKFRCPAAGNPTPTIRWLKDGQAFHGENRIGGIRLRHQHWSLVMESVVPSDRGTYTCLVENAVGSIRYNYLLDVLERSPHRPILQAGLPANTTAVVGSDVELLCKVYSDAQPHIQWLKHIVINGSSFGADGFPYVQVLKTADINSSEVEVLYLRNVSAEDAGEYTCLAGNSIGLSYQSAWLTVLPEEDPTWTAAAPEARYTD
Procedure, shortened: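 Biotinylated FGF-R ECD on streptavidin biosensors was dipped into ~1 μM crude peptide in PBS pH7.4 with 0.05% Tween-20 and 0.01% BSA for association, then into buffer for dissociation, and followed by BLI. Fitted KD values were adjusted for peptide concentration measured by UPLC-CAD.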

FGF-R4 ECD [4] = biological target: T3, FGF-R4 ECD; experiment: multi-concentration BLI of purified peptides; assay type: binding; details: purified trimer-18 library peptides
Procedure: as §1, §2, §3, §4

FGF-R1C ECD [5] = biological target: T1, FGF-R1C ECD; experiment: biochemical; assay type: binding; design: DNA constructs for the extracellular domain (ECD) of human FGF-; HPC4 (C); made in house; host or cells: HEK 293-6E
Procedure, shortened: (§5)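 Biolayer interferometry with biotinylated FGF-R ECD on streptavidin biosensors in PBS pH 7.4, 0.05% Tween-20, 0.01% BSA. Multi-concentration: purified peptide dilution series fitted to a multi-point KD model.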

FGF-R3C ECD [6] = biological target: T2, FGF-R3C ECD; experiment: biochemical; assay type: binding; design: DNA constructs for the extracellular domain (ECD) of human FGF-; HPC4 (C); made in house; host or cells: HEK 293-6E
Procedure, shortened: as §5

Row | SMILES | pKd (FGF-R1C ECD [1]; read-out: R1C KD, purified trimer-18 library peptides, multi-concentration BLI) | pKd (FGF-R3C ECD [2]; read-out: R3C KD, purified trimer-18 library peptides, multi-concentration BLI) | pKd (FGF-R4 ECD [3]) | pKd (FGF-R4 ECD [4]) | pKd (FGF-R1C ECD [5]; read-out: KD (1C)) | pKd (FGF-R3C ECD [6]; read-out: KD(3C)) | pKd (FGF-R1C ECD [1]) | pKd (FGF-R3C ECD [2]) | pKd (FGF-R1C ECD [5]) | pKd (FGF-R3C ECD [6])
1 | CSCC[C@H](NC(C)=O)C(=O)N[C@H]1CSSC[C@@H](C(=O)NCC(=O)N[C@@H](CO)C(=O)NCC(=O)N[C@@H](CO)C(=O)N[C@@H](CCC(=O)O)C(=O)N[C@@H](CCC(=O)O)C(=O)NCC(=O)N[C@@H](CO)C(=O)NCC(=O)N[C@@H](CO)C(=O)N[C@@H](CC(=O)O)C(=O)N[C@@H](Cc2ccc(O)cc2)C(=O)N[C@@H](CCCCN)C(=O)N[C@@H](CC(=O)O)C(=O)N[C@@H](CC(=O)O)C(=O)N[C@@H](CC(=O)O)C(=O)N[C@@H](CC(=O)O)C(=O)N[C@@H](CCCCN)C(N)=O)NC(=O)[C@H](CCCCN)NC(=O)[C@H](CCCCN)NC(=O)[C@H](Cc2c[nH]c3ccccc23)NC(=O)[C@H](CC(C)C)NC(=O)[C@H](CC(C)C)NC(=O)[C@H](Cc2ccc(O)cc2)NC(=O)[C@H](Cc2ccc(O)cc2)NC(=O)[C@H](Cc2ccc(O)cc2)NC(=O)[C@H](CC(C)C)NC(=O)[C@H](Cc2c[nH]cn2)NC(=O)[C@H](CCCCN)NC1=O [4.10] | < 6.00 | 6.28 | 9.00 | 8.70 | 5.99 | 6.03 |  |  |  | 
2 | CSCC[C@H](NC(C)=O)C(=O)N[C@H]1CSSC[C@@H](C(=O)NCC(=O)N[C@@H](CO)C(=O)NCC(=O)N[C@@H](CO)C(=O)N[C@@H](CC(=O)O)C(=O)N[C@@H](Cc2ccc(O)cc2)C(=O)N[C@@H](CCCCN)C(=O)N[C@@H](CC(=O)O)C(=O)N[C@@H](CC(=O)O)C(=O)N[C@@H](CC(=O)O)C(=O)N[C@@H](CC(=O)O)C(=O)N[C@@H](CCCCN)C(N)=O)NC(=O)[C@H](Cc2c[nH]cn2)NC(=O)[C@H](CCCNC(=N)N)NC(=O)[C@H](CC(C)C)NC(=O)[C@H](C(C)C)NC(=O)[C@H](CCCCN)NC(=O)[C@H](Cc2ccc(O)cc2)NC(=O)[C@H](CC(C)C)NC(=O)[C@H](CC(C)C)NC(=O)[C@H](C(C)C)NC(=O)[C@H](CC(N)=O)NC1=O [4.11] |  |  | 7.96 | 6.27 |  |  | < 6.00 | 6.94 | < 5.00 | < 5.00
3 | CSCC[C@H](NC(C)=O)C(=O)N[C@H]1CSSC[C@@H](C(=O)NCC(=O)N[C@@H](CO)C(=O)NCC(=O)N[C@@H](CO)C(=O)N[C@@H](CC(=O)O)C(=O)N[C@@H](Cc2ccc(O)cc2)C(=O)N[C@@H](CCCCN)C(=O)N[C@@H](CC(=O)O)C(=O)N[C@@H](CC(=O)O)C(=O)N[C@@H](CC(=O)O)C(=O)N[C@@H](CC(=O)O)C(=O)N[C@@H](CCCCN)C(N)=O)NC(=O)[C@H](C(C)C)NC(=O)[C@H](Cc2c[nH]c3ccccc23)NC(=O)[C@H](Cc2c[nH]c3ccccc23)NC(=O)[C@H](CC(C)C)NC(=O)[C@H](CCCCN)NC(=O)[C@H](Cc2c[nH]c3ccccc23)NC(=O)[C@H](CCCNC(=N)N)NC(=O)[C@H](Cc2ccc(O)cc2)NC(=O)[C@H](C)NC(=O)[C@H](CC(=O)O)NC(=O)[C@H](CO)NC(=O)[C@H](CCC(=O)O)NC1=O [4.12] |  |  | 8.00 | 7.82 |  |  | < 6.00 | < 6.00 | 5.80 | < 5.00
4 | CSCC[C@H](NC(C)=O)C(=O)N[C@H]1CSSC[C@@H](C(=O)NCC(=O)N[C@@H](CO)C(=O)NCC(=O)N[C@@H](CO)C(=O)N[C@@H](CC(=O)O)C(=O)N[C@@H](Cc2ccc(O)cc2)C(=O)N[C@@H](CCCCN)C(=O)N[C@@H](CC(=O)O)C(=O)N[C@@H](CC(=O)O)C(=O)N[C@@H](CC(=O)O)C(=O)N[C@@H](CC(=O)O)C(=O)N[C@@H](CCCCN)C(N)=O)NC(=O)[C@H](CC(C)C)NC(=O)[C@H](CCC(N)=O)NC(=O)[C@H](Cc2c[nH]c3ccccc23)NC(=O)[C@H](CCCCN)NC(=O)[C@H](CCC(=O)O)NC(=O)[C@H](Cc2c[nH]c3ccccc23)NC(=O)[C@H](CC(N)=O)NC(=O)[C@H](Cc2ccc(O)cc2)NC(=O)[C@H](Cc2ccccc2)NC(=O)[C@H](CCCNC(=N)N)NC(=O)[C@H]([C@@H](C)O)NC(=O)[C@H](Cc2ccc(O)cc2)NC1=O [4.13] |  |  | < 5.00 | < 6.00 |  |  | < 6.00 | < 6.00 | 7.77 | < 5.00
